# Measured values reported in patent US11660303B2, “2-phenylimidazo[4,5-b]pyridin-7-amine derivates useful as inhibitors of mammalian tyrosine kinase ROR1 activity” (KANCERA AB, priority 2016, dated 2023).
# Legend:
# [1] = system: PBMC from healthy volunteers; assay: CellTiter-Blue Cell Viability Assay, PBMC from healthy volunteers; assay type: cell-based; conditions: Homo sapiens, cell toxicity, culture 24, 48 and 72 h (time of the values not stated)
# Description: (§1) The CellTiter-Blue® Cell Viability Assay provides a homogeneous, fluorometric method for estimating the number of viable cells present in multi-well plates. The assay uses the indicator dye resazurin to measure the metabolic capacity of cells. Viable cells retain the ability to reduce resazurin into resorufin, which is highly fluorescent.
# (§2) Stock solutions (10 or 100 mM in DMSO) of compounds were serially diluted 1:2 in 11 concentrations and 25 nL/well (100 mM stock) or 50 nL/well (10 mM stock) were acoustically dispensed in assay plates with an EDC acoustic dispenser. Final starting concentration in the assay was 20 μM (0.2% DMSO) or 100 μM (0.1% DMSO) for test compounds.
# (§3) Peripheral blood mononuclear cells (PBMC) from CLL patients or healthy volunteers were seeded in assay plates (384-well black/clear, Greiner #781091) pre-dispensed with compounds, 25 μL/well, and cultured for 24, 48 and 72 h. The cell concentration was 50 000 cells/well for PBMC from CLL patients or healthy volunteers. After 24, 48 and 72 h culture, Celltiter Blue reagent was added (5 μL/well) and the plates were incubated for 2 h. The plates were read in an Envision fluorescence reader (PerkinElmer) with Ex544 nm/Em590 nm. Results were calculated as % cytotoxicity compared to background (cells treated with 0.2% DMSO).
# (§4) Thus, IC50 values for cell toxicity in PBMC from CLL patients as well as healthy volunteers for some compounds of the invention are shown in Table 3 as measured by the CellTiter-Blue® Cell Viability Assay.
# PBMC from CLL patients = assay: CellTiter-Blue Cell Viability Assay, PBMC from CLL patients; assay type: cell-based; conditions: Homo sapiens, cell toxicity, culture 24, 48 and 72 h (time of the values not stated)
# Description: as §1, §2, §3, §4
smiles,measurement,setting,value
"COCCCN1CCN(c2ccc(-c3nc4c(NC5CCN(C(C)C)CC5)c(Cl)cnc4[nH]3)cc2)CC1=O [Example 246, 4-[4-(6-Chloro-7-{[1-(1-methylethyl)piperidin-4-yl]amino}-3H-imidazo[4,5-b]pyridin-2-yl)phenyl]-1-(3-methoxypropyl)piperazin-2-one]",IC50,[1],> 20000 nM
same,IC50,PBMC from CLL patients,110 nM
"CN1CCC(Nc2c(Cl)cnc3[nH]c(-c4ccc(N5CCC(CCO)CC5)cc4)nc23)CC1 [Example 254, 2-[1-(4-{6-Chloro-7-[(1-methylpiperidin-4-yl)amino]-3H-imidazo[4,5-b]pyridin-2-yl}phenyl)piperidin-4-yl]ethanol]",IC50,[1],16300 nM
same,IC50,PBMC from CLL patients,50 nM
COCCN1CCN(c2ccc(-c3nc4c(NC5CCN(Cc6ccc(OC)cc6)CC5)c(Cl)cnc4[nH]3)cc2)CC1=O [Example 260],IC50,[1],> 20000 nM
same,IC50,PBMC from CLL patients,220 nM
"CN1CCC(Nc2c(Br)cnc3[nH]c(-c4ccc(N5CCN(CCCO)CC5)cc4)nc23)CC1 [Example 268, 3-[4-(4-{6-Bromo-7-[(1-methylpiperidin-4-yl)amino]-3H-imidazo[4,5-b]pyridin-2-yl}phenyl)piperazin-1-yl]propan-1-ol]",IC50,[1],> 20000 nM
same,IC50,PBMC from CLL patients,10 nM
"COCCC(=O)N1CCN(c2ccc(-c3nc4c(NC5CCN(C)CC5)c(Cl)cnc4[nH]3)cc2)CC1 [Example 276, 6-Chloro-2-{4-[4-(3-methoxypropanoyl)piperazin-1-yl]phenyl}-N-(1-methylpiperidin-4-yl)-3H-imidazo[4,5-b]pyridin-7-amine]",IC50,[1],> 20000 nM
same,IC50,PBMC from CLL patients,50 nM
"COCCC1CCN(c2ccc(-c3nc4c(NC5CCN(C)CC5)c(Cl)cnc4[nH]3)cc2)CC1 [Example 281, 6-Chloro-2-{4-[4-(2-methoxyethyl)piperidin-1-yl]phenyl}-N-(1-methylpiperidin-4-yl)-3H-imidazo[4,5-b]pyridin-7-amine]",IC50,[1],8400 nM
same,IC50,PBMC from CLL patients,60 nM
"CN1CCC(Nc2c(Cl)cnc3[nH]c(-c4ccc(N5CCN(Cc6ccccc6)C(=O)C5)cc4)nc23)CC1 [Example 291, 1-Benzyl-4-(4-{6-chloro-7-[(1-methylpiperidin-4-yl)amino]-3H-imidazo[4,5-b]pyridin-2-yl}phenyl)piperazin-2-one]",IC50,[1],6500 nM
same,IC50,PBMC from CLL patients,40 nM
"CCN1CCC(Nc2c(Br)cnc3[nH]c(-c4ccc(N5CCN(C)C(=O)C5)cc4)nc23)CC1 [Example 299, 4-(4-{6-Bromo-7-[(1-ethylpiperidin-4-yl)amino]-3H-imidazo[4,5-b]pyridin-2-yl}phenyl)-1-methylpiperazin-2-one]",IC50,[1],> 20000 nM
same,IC50,PBMC from CLL patients,90 nM
"CCN1CCC(Nc2c(Br)cnc3[nH]c(-c4ccc(N5CCN(C(=O)c6cccnc6)CC5)cc4)nc23)CC1 [Example 304, 6-Bromo-N-(1-ethylpiperidin-4-yl)-2-{4-[4-(pyridin-3-ylcarbonyl)piperazin-1-yl]phenyl}-3H-imidazo[4,5-b]pyridin-7-amine]",IC50,[1],> 20000 nM
same,IC50,PBMC from CLL patients,60 nM
"COCCCN1CCN(c2ccc(-c3nc4c(NC5CCN(CCOC)CC5)c(Cl)cnc4[nH]3)cc2)CC1 [Example 308, 6-Chloro-N-[1-(2-methoxyethyl)piperidin-4-yl]-2-{4-[4-(3-methoxypropyl)piperazin-1-yl]phenyl}-3H-imidazo[4,5-b]pyridin-7-amine]",IC50,[1],> 20000 nM
same,IC50,PBMC from CLL patients,650 nM
"CCN1CCC(Nc2c(Cl)cnc3[nH]c(-c4ccc(N5CCN(Cc6cncs6)CC5)cc4)nc23)CC1 [Example 320, 6-Chloro-N-(1-ethylpiperidin-4-yl)-2-{4-[4-(1,3-thiazol-5-ylmethyl)piperazin-1-yl]phenyl}-3H-imidazo[4,5-b]pyridin-7-amine]",IC50,[1],> 20000 nM
same,IC50,PBMC from CLL patients,100 nM
"CC(C)N1CCC(Nc2c(Cl)cnc3[nH]c(-c4ccc(N5CCN(CCNc6ccnn6C)CC5)cc4)nc23)CC1 [Example 326, 6-Chloro-N-[1-(1-methylethyl)piperidin-4-yl]-2-[4-(4-{2-[(1-methyl-1H-pyrazol-5-yl)amino]ethyl}piperazin-1-yl)phenyl]-3H-imidazo[4,5-b]pyridin-7-amine]",IC50,[1],> 20000 nM
same,IC50,PBMC from CLL patients,260 nM
"CCN1CCC(Nc2c(Br)cnc3[nH]c(-c4ccc(N5CCN(C(=O)c6ccncc6)CC5)cc4)nc23)CC1 [Example 331, 6-Bromo-N-(1-ethylpiperidin-4-yl)-2-{4-[4-(pyridin-4-ylcarbonyl)piperazin-1-yl]phenyl}-3H-imidazo[4,5-b]pyridin-7-amine]",IC50,[1],> 20000 nM
same,IC50,PBMC from CLL patients,190 nM
"CC(C)N1CCC(Nc2c(Br)cnc3[nH]c(-c4ccc(N5CCN(CCC#N)CC5)cc4)nc23)CC1 [Example 337, 3-{4-[4-(6-Bromo-7-{[1-(1-methylethyl)piperidin-4-yl]amino}-3H-imidazo[4,5-b]pyridin-2-yl)phenyl]piperazin-1-yl}propanenitrile]",IC50,[1],> 20000 nM
same,IC50,PBMC from CLL patients,250 nM
"CCOCCN1CCN(c2ccc(-c3nc4c(NC5CC(C)(C)N(C)C(C)(C)C5)c(Br)cnc4[nH]3)cc2)CC1=O [Example 342, 4-(4-{6-Bromo-7-[(1,2,2,6,6-pentamethylpiperidin-4-yl)amino]-3H-imidazo[4,5-b]pyridin-2-yl}phenyl)-1-(2-ethoxyethyl)piperazin-2-one]",IC50,[1],> 20000 nM
same,IC50,PBMC from CLL patients,40 nM
"COCCN1CCN(c2ccc(-c3nc4c(NC5CCN(CC6CC6)CC5)c(Cl)cnc4[nH]3)cc2)CC1=O [Example 355, 4-[4-(6-Chloro-7-{[1-(cyclopropylmethyl)piperidin-4-yl]amino}-3H-imidazo[4,5-b]pyridin-2-yl)phenyl]-1-(2-methoxyethyl)piperrazin-2-one]",IC50,[1],> 20000 nM
same,IC50,PBMC from CLL patients,110 nM
"CCN1CCC(Nc2c(Br)cnc3[nH]c(-c4ccc(N5CCN(C(=O)C(C)(C)C)CC5)cc4)nc23)CC1 [Example 363, 6-Bromo-2-{4-[4-(2,2-dimethylpropanoyl)piperazin-1-yl]phenyl}-N-(1-ethylpiperidin-4-yl)-3H-imidazo[4,5-b]pyridin-7-amine]",IC50,[1],3100 nM
same,IC50,PBMC from CLL patients,140 nM
"COCCN1CCN(c2ccc(-c3nc4c(NC5CCN(C)CC5)c(Cl)cnc4[nH]3)cc2F)CC1 [Example 372, 6-Chloro-2-{3-fluoro-4-[4-(2-methoxyethyl)piperazin-1-yl]phenyl}-N-(1-methylpiperidin-4-yl)-3H-imidazo[4,5-b]pyridin-7-amine]",IC50,[1],> 20000 nM
same,IC50,PBMC from CLL patients,310 nM
"COCCN1CCN(c2ccc(-c3nc4c(NC5CCN(C)CC5)c(Cl)cnc4[nH]3)cc2OC)CC1 [Example 381, 6-Chloro-2-{3-methoxy-4-[4-(2-methoxyethyl)piperazin-1-yl]phenyl}-N-(1-methylpiperidin-4-yl)-3H-imidazo[4,5-b]pyridin-7-amine]",IC50,[1],> 20000 nM
same,IC50,PBMC from CLL patients,400 nM
"COCCN1CCN(c2ccc(-c3nc4c(NC5CCN(C(C)C)CC5)c(Cl)cnc4[nH]3)cc2OC)CC1 [Example 387, 6-Chloro-2-{3-methoxy-4-[4-(2-methoxyethyl)piperazin-1-yl]phenyl}-N-[1-(1-methylethyl)piperidin-4-yl]-3H-imidazo[4,5-b]pyridin-7-amine]",IC50,[1],> 20000 nM
same,IC50,PBMC from CLL patients,1300 nM
"COCCN1CCN(c2ccc(-c3nc4c(NC5CCN(CCC#N)CC5)c(Cl)cnc4[nH]3)cc2)CC1 [Example 396, 3-{4-[(6-Chloro-2-{4-[4-(2-methoxyethyl)piperazin-1-yl]phenyl}-3H-imidazo[4,5-b]pyridin-7-yl)amino]piperidin-1-yl}propanenitrile]",IC50,[1],> 20000 nM
same,IC50,PBMC from CLL patients,190 nM
"CCOCCN1CCN(c2ccc(-c3nc4c(NC5CCN(CCC#N)CC5)c(Br)cnc4[nH]3)cc2)CC1=O [Example 406, 3-{4-[(6-Bromo-2-{4-[4-(2-ethoxyethyl)-3-oxopiperrazin-1-yl]phenyl}-3H-imidazo[4,5-b]pyridin-7-yl)amino]piperidin-1-yl}propanenitrile]",IC50,[1],> 20000 nM
same,IC50,PBMC from CLL patients,230 nM
